Data on two compounds can be found in publication PMC9218685, “Legume Plant Peptides as Sources of Novel Antimicrobial Molecules Against Human Pathogens” (Frontiers in Molecular Biosciences, 2022).

Data set [1] deals with Listeria monocytogenes (ATCC 19111). It counts as cell-based. Conditions: ATCC 19111, 3 h. In a few lines: (§1)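 Complete loss of viable bacteria after 3 h defined the MBC. Two-fold peptide series, 25 µM top concentration, ~10^7 log-phase cells in potassium-phosphate buffer pH 7.4.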
The test system of data set [2] is Klebsiella pneumoniae (NCTC 13440). It counts as cell-based. Conditions: NCTC 13440, 3 h. In a few lines:
as §1

Data set [3] relates to Escherichia coli (ATCC 8739). In kind it is cell-based. Conditions: ATCC 8739, 3 h. The procedure, abridged:
as §1

Data set [4] has as its system Staphylococcus aureus (HNCMO112011). In kind it is cell-based. The settings on record: HNCMO112011, 3 h. In a few lines:
as §1

Data set [5] concerns Pseudomonas aeruginosa (ATCC 27853). It counts as cell-based. The settings on record: ATCC 27853, 3 h. In a few lines: as §1
The test system of data set [6] is Salmonella enterica (ATCC 13076). In kind it is cell-based. Conditions: ATCC 13076, 3 h. In a few lines: as §1
For data set [7], the system named is E. coli, S. enteritidis, P. aeruginosa, L. monocytogenes, S. aureus, E. faecalis, K. pneumoniae and A. baumannii. Put plainly: Antimicrobial activity assay, spectrum over the eight tested pathogenic bacteria. It counts as cell-based. Conditions: 3 h treatment of ~10^7 log phase bacteria, peptides 25 to 0.8 µM; active = MBC ≤25 µM. In a few lines:
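MBC taken as the lowest peptide concentration leaving no viable bacteria after 3 h exposure of ~10^7 log-phase cells. Peptides tested by 2-fold serial dilution, 25 µM down to 0.8 µM, in PPB (pH 7.4). Gram-positive and Gram-negative reference strains from ATCC, NCTC and HNCMO collections.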

The test system of data set [8] is Acinetobacter baumannii (ATCC 17978). Put plainly: microbe, parasite or virus in culture. In kind it is cell-based. In a few lines:
as §1

The test system of data set [9] is Lambda DNA/HindIII marker. Put plainly: Gel retardation assay (DNA aggregation). It counts as binding. Conditions: 100 ng DNA, 5 or 10 µM peptide in water, 30 min at room temperature, 1% agarose gel.
Data set [10] deals with Candida albicans W01 strain. Description: microbe, parasite or virus in culture. In kind it is cell-based. Conditions: W01 strain; read-out: MFC, minimal fungicidal concentration against C. albicans. In a few lines:
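Anti-Candida testing followed Szerencsés et al. (2021), with two-fold peptide dilutions from 25 μM to 0.125 μM and miconazole from 10.24 mM to 0.1 μM. MFC taken as the lowest concentration completely eliminating viable C. albicans.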

In another data set the test system is A. baumannii. Description: Scanning electron microscopy of cell morphology. In kind it is cell-based, Acinetobacter baumannii. Conditions: 30 min treatment, peptide 1.6 or 3.125 µM as in Figure 3 legend.
The next data set relates to C. albicans. Put plainly: Scanning electron microscopy of cell morphology. In kind it is cell-based, Candida albicans. Conditions: 30 min treatment, peptide 1.6, 3.125 or 25 µM as in Figure 4 legend. On the procedure:
A. baumannii and C. albicans were grown and treated the same way as for the membrane permeability assay. Cells were then fixed with 2.5% (v/v) glutaraldehyde in phosphate buffered saline (PBS, pH 7.4). 5 μl of the above bacterial and yeast suspensions were spotted on a silicon disk coated with 0.01% Poly-L-Lysine. The filters were washed twice with PBS and gradually dehydrated with ethanol series (30, 50, 70, 80%, and three times 100% ethanol, each for minimum 30 min). The samples were dried with a critical point dryer (K850: Quorum Technologies Ltd.), followed by 12 nm gold coating and observed under a JEOL JSM-7100F/LV scanning electron microscope.

Data set [11] deals with Enterococcus faecalis (ATCC 29212). It counts as cell-based. The procedure, abridged: as §1
For data set [12] the following is noted: peptides carrying a StrepII tag at their C-terminus, 25 µM, 10% Fetal Bovine Serum, 37°C, 18 h; StrepTactin-HRP Western blot. As to the method: Peptides were incubated in 10% Fetal Bovine Serum at 37°C for 18 h. Full length NCRs were used at 25 μM, while short derivatives at 50 μM. The serum proteins and peptides were separated by sodium dodecyl sulfate-polyacrylamide gel electrophoresis (SDS-PAGE, 12% bis-tris gel, MES buffer pH 7.3) and visualized by Coomassie blue staining. NCRs with StrepII tag at their C-terminus were also detected by Western blot analysis using Precision Protein StrepTactin-HRP conjugate antibody (BioRad) and Clarity Western ECL (BioRad) for chemiluminescence detection according to the supplier.
FIGURE S3 Serum stability assay. Full length NCRs, StrepII-tagged NCR peptides (25 µM) and shorter NCR derivatives (50 µM) were incubated in water or in 10% Fetal Bovine Serum (FBS) for 18 hours at 37°C. Serum proteins and the peptides were separated by SDS-Page and visualized by Coomassie blue staining or in the case of StrepII-tagged NCRs also with Western blot. […]

≈ marks a conversion by molar mass, not a printed value. Ends that are not written are not given here. Peptide text beside a SMILES is read from it.

As to `CC[C@H](C)[C@H](NC(=O)[C@H](CS)NC(=O)[C@H](CCCCN)NC(=O)[C@@H](NC(=O)[C@@H](NC(=O)[C@H](Cc1ccccc1)NC(=O)[C@H](CCCCN)NC(=O)[C@H](CO)NC(=O)[C@H](CO)NC(=O)[C@@H](NC(=O)[C@H](CC(C)C)NC(=O)[C@H](CCCCN)NC(=O)[C@@H]1CCCN1C(=O)[C@H](CS)NC(=O)[C@H](CC(=O)O)NC(=O)[C@H](C)NC(=O)[C@@H](NC(=O)[C@@H](NC(=O)[C@H](CCCNC(=N)N)NC(=O)[C@H](CS)NC(=O)[C@H](CCC(=O)O)NC(=O)[C@@H](NC(=O)[C@H](CO)NC(=O)[C@@H](N)CCC(=O)O)[C@@H](C)CC)[C@@H](C)O)C(C)C)[C@@H](C)CC)C(C)C)[C@@H](C)CC)C(=O)N[C@@H](CCCCN)C(=O)N[C@@H](CCCCN)C(=O)N[C@@H](CCCNC(=N)N)C(=O)N[C@@H](CS)C(=O)N[C@H](C(=O)N[C@@H](C)C(=O)N[C@@H](CCC(N)=O)C(=O)N[C@@H](Cc1ccccc1)C(=O)N[C@@H](Cc1ccccc1)C(=O)N[C@@H](CCCCN)C(=O)O)C(C)C` [MsNCR443] (H-ESIECRTVADCPKLISSKFVIKCIKKRCVAQFFK-OH; N-terminus assumed), the “MBC Listeria monocytogenes” value in data set [1] is given as 12.5 µM (≈ 49 µg/mL). In data set [2], the “MBC Klebsiella pneumoniae” value is given as 12.5 µM (≈ 49 µg/mL). For the same compound, the “MBC Escherichia coli” value in data set [3] is reported as 1.6 µM (≈ 6.27 µg/mL). The “MBC Staphylococcus aureus” value in [4] is 12.5 µM (≈ 49 µg/mL). The “MBC Pseudomonas aeruginosa” value in data set [5] came out at 6.25 µM (≈ 24.5 µg/mL). The “MBC Salmonella enterica” value in data set [6] is recorded as 25 µM (≈ 98 µg/mL). The “Antibacterial spectrum over the eight tested bacterial strains” value in [7] is recorded as “broad-spectrum activity”. Besides, in data set [8] (ATCC 17978, 3 h), the “MBC Acinetobacter baumannii” value worked out at 1.6 µM (≈ 6.27 µg/mL). In addition, the MBC in data set [8] (~10^7 log phase bacteria, Potassium-Phosphate Buffer pH 7.4, 3 h treatment, two-fold dilution series, lowest concentration completely eliminating viable bacteria, read-out: MBC, minimal bactericidal concentration against A. baumannii) was determined as 6.25 µM (≈ 24.5 µg/mL). Also, in [9], the “Aggregation of HindIII-digested λ DNA (DNA retained in loading wells)” value is given as “did not”. In data set [10], the MFC stood at 6.25 µM (≈ 24.5 µg/mL). The “Morphology of A. baumannii cells by SEM” value in the data set on A. baumannii was “Filament-like structures”. Also, the “Morphology of C. albicans cells by SEM” value in the data set on C. albicans is “aggregation of shrunken cells in a spider net like matrix”.
As to “ITISNSSFGRIVYWNCKTDKDCKQHRGFNFRCRSGNCIPIRR-OH (cysteines drawn unpaired) [NCR183]”, the “MBC Listeria monocytogenes” value in [1] came to 6.25 µM. In data set [3], the “MBC Escherichia coli” value is listed as 6.25 µM. In addition, the “Ability to kill E. faecalis” value in data set [11] (3 h, ~10^7 log phase bacteria, peptides ≤25 µM) is given as “able to kill”. For the same compound, the “MBC Enterococcus faecalis” value in data set [11] (ATCC 29212, 3 h) worked out at 25 µM. Moreover, in [5], the “MBC Pseudomonas aeruginosa” value is given as 6.25 µM. Besides, in data set [6], the “MBC Salmonella enterica” value amounted to 25 µM. Further, the “Antibacterial spectrum over the eight tested bacterial strains” value in data set [7] is reported as “effective against five or four strains”. In addition, the “Stability in serum by Western blot” value in data set [12] is “stable in the presence of FBS”.
